For the data set the following is noted: Crystal; DTA.

Numbers after ± are expanded uncertainties.

As for `[Ag][I]` [silver iodide], the Triple point temperature is given as 832 ± 0.6 K.

Turning to `[Cl-].[Na+]` [sodium chloride], the Triple point temperature amounted to 1074 ± 0.6 K.

Source of the values: the NIST ThermoML archive (doi:10.1016/j.jct.2015.06.015).
